PubChem BioAssay (NCI)
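48-hour exposure; five concentrations; linearly interpolated endpoints. GI50 = concentration required for 50% inhibition of growth. TGI is the concentration that stops growth completely.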

Experiments:
Test in all cases: growth of human tumour cells (NCI), 48 h
A549 NSCLC = tested on: A549 NSCLC
HS 578T breast = tested on: HS 578T breast
MDA-MB-231 breast = tested on: MDA-MB-231 breast
MDA-MB-435 = tested on: MDA-MB-435
NCI-H460 lung = tested on: NCI-H460 lung
PC-3 prostate = tested on: PC-3 prostate
SF-268 CNS = tested on: SF-268 CNS
SK-MEL-28 melanoma = tested on: SK-MEL-28 melanoma
U251 CNS = tested on: U251 CNS
K-562 leukemia = tested on: K-562 leukemia

## COc1ccc(-c2cc(-c3ccc(Cl)cc3)nc(SCCCC(=O)NO)n2)cc1OC
A549 NSCLC
  GI50: 1.58 µM
  TGI: 8.59 µM
HS 578T breast
  GI50: 2.31 µM
  TGI: 11.1 µM
MDA-MB-231 breast
  GI50: 0.788 µM
  TGI: 4.29 µM
MDA-MB-435
  GI50: 1.42 µM
  TGI: 3.12 µM
NCI-H460 lung
  GI50: 0.466 µM
  TGI: 3.4 µM
PC-3 prostate
  GI50: 0.944 µM
  TGI: 3.03 µM
SF-268 CNS
  GI50: 1.28 µM
  TGI: 3.81 µM
SK-MEL-28 melanoma
  GI50: 1.2 µM
  TGI: 2.71 µM
U251 CNS
  GI50: 0.799 µM
  TGI: 7.34 µM

## COC12OCCN(C)C1=CC(=O)C1N=NCC12 (stereo not drawn)
A549 NSCLC
  TGI: > 100 µM
K-562 leukemia
  TGI: > 100 µM
NCI-H460 lung
  TGI: > 100 µM
SK-MEL-28 melanoma
  TGI: > 100 µM
U251 CNS
  TGI: > 100 µM

## Nc1nc2c(ncn2C2OC(CO)C(O)C2O)c(=O)o1 (stereo not drawn)
A549 NSCLC
  TGI: > 100 µM
K-562 leukemia
  TGI: > 100 µM
NCI-H460 lung
  TGI: > 100 µM
PC-3 prostate
  TGI: > 100 µM
SF-268 CNS
  TGI: > 100 µM
SK-MEL-28 melanoma
  TGI: > 100 µM
U251 CNS
  TGI: > 100 µM

## CCCCN(CCCC)CC(C(=O)Nc1ccc([N+](=O)[O-])cc1[N+](=O)[O-])/C(C)=N\NC(=O)c1ccncc1 (stereo not drawn)
A549 NSCLC
  TGI: > 100 µM
K-562 leukemia
  TGI: > 100 µM
NCI-H460 lung
  TGI: > 100 µM
SF-268 CNS
  TGI: > 100 µM
SK-MEL-28 melanoma
  TGI: > 100 µM
U251 CNS
  TGI: > 100 µM

## NC(=S)N/N=C/C(O[C@@H](/C=N/NC(N)=S)CO)n1cnc2c(N)ncnc21 (stereo partly drawn)
A549 NSCLC
  TGI: > 100 µM
K-562 leukemia
  TGI: > 100 µM
NCI-H460 lung
  TGI: > 100 µM
SF-268 CNS
  TGI: > 100 µM
SK-MEL-28 melanoma
  TGI: > 100 µM
U251 CNS
  TGI: > 89.4 µM

## C/C(=C\CNc1ncnc2c1ncn2C1CCCCO1)COP(=O)(O)O (stereo not drawn)
A549 NSCLC
  TGI: > 100 µM
K-562 leukemia
  TGI: > 100 µM
NCI-H460 lung
  TGI: > 100 µM
SF-268 CNS
  TGI: > 100 µM
SK-MEL-28 melanoma
  TGI: > 100 µM
U251 CNS
  TGI: > 100 µM

## O=C1CCC2(c3ccccc3)OCC([C@@H](O)c3ccccc3)N12 (stereo partly drawn)
A549 NSCLC
  TGI: > 100 µM
K-562 leukemia
  TGI: > 100 µM
NCI-H460 lung
  TGI: > 100 µM
SF-268 CNS
  TGI: > 100 µM
SK-MEL-28 melanoma
  TGI: > 100 µM
U251 CNS
  TGI: > 100 µM

## O=C(CC(=O)N1N=C(n2ccc3ccccc32)CC1c1ccccc1)Nc1ccccc1Cl (stereo not drawn)
A549 NSCLC
  TGI: > 100 µM
K-562 leukemia
  TGI: > 100 µM
NCI-H460 lung
  TGI: > 100 µM
SF-268 CNS
  TGI: > 100 µM
SK-MEL-28 melanoma
  TGI: > 100 µM
U251 CNS
  TGI: > 100 µM

## CC1CN1c1c(C(=O)/C=C/c2ccc(F)cc2)c(-c2ccccc2)nn(C)c1=O (stereo not drawn)
A549 NSCLC
  TGI: 47.5 µM
NCI-H460 lung
  TGI: 36.3 µM
SF-268 CNS
  TGI: 30.4 µM
SK-MEL-28 melanoma
  TGI: 32 µM
U251 CNS
  TGI: 28.9 µM

## CCP(C)(=O)CC
A549 NSCLC
  TGI: > 100 µM
K-562 leukemia
  TGI: > 100 µM
NCI-H460 lung
  TGI: > 100 µM
SF-268 CNS
  TGI: > 100 µM
SK-MEL-28 melanoma
  TGI: > 100 µM
U251 CNS
  TGI: > 100 µM

## COC(=O)C1=C(C)N(NC(N)=O)C2(N)N(NC(N)=O)C(C)=C(C(=O)OC)C12C#N (stereo not drawn)
A549 NSCLC
  TGI: > 100 µM
K-562 leukemia
  TGI: > 100 µM
NCI-H460 lung
  TGI: > 100 µM
SF-268 CNS
  TGI: > 100 µM
SK-MEL-28 melanoma
  TGI: > 100 µM
U251 CNS
  TGI: > 100 µM

## Cc1cc(NS(=O)(=O)c2ccc(-c3cnc(C4CC4)o3)cc2)ccc1Cl
A549 NSCLC
  GI50: 0.437 µM
  TGI: 14.9 µM
HS 578T breast
  GI50: 0.233 µM
  TGI: 11.5 µM
K-562 leukemia
  GI50: 0.0567 µM
  TGI: > 100 µM
MDA-MB-231 breast
  GI50: 0.794 µM
  TGI: 12.2 µM
NCI-H460 lung
  GI50: 0.297 µM
  TGI: 11.1 µM
PC-3 prostate
  GI50: 0.272 µM
  TGI: 15.3 µM
SF-268 CNS
  GI50: 2.19 µM
  TGI: 19.9 µM
SK-MEL-28 melanoma
  GI50: 2.87 µM
  TGI: 20 µM
U251 CNS
  GI50: 0.368 µM
  TGI: 14.9 µM

## CC(C)(C)c1cc(Cc2ccc(S(C)(=O)=O)cc2)c(O)c(C(C)(C)C)c1
A549 NSCLC
  TGI: 24.2 µM
K-562 leukemia
  TGI: 31.6 µM
NCI-H460 lung
  TGI: 30.5 µM
SF-268 CNS
  TGI: 25.9 µM
SK-MEL-28 melanoma
  TGI: 32 µM
U251 CNS
  TGI: 28.7 µM

## CC(=O)[CH-]C(=O)c1ccccc1.CC(=O)[CH-]C(=O)c1ccccc1.CC[C@H](CCC(C)[C@H]1CCC2[C@@H]3CC=C4C[C@@H]([O-])CC[C@]4(C)C3CC[C@@]21C)C(C)C.CC[C@H](CCC(C)[C@H]1CCC2[C@@H]3CC=C4C[C@@H]([O-])CC[C@]4(C)C3CC[C@@]21C)C(C)C.Cl.[Ti+4] (stereo partly drawn)
A549 NSCLC
  TGI: > 25 µM
K-562 leukemia
  TGI: > 25 µM
NCI-H460 lung
  TGI: > 25 µM
SF-268 CNS
  TGI: > 25 µM
SK-MEL-28 melanoma
  TGI: > 25 µM
U251 CNS
  TGI: > 25 µM

## c1ccc(-c2sc(-c3ccccc3)c3c2C(c2ccccc2)c2c(-c4ccccc4)sc(-c4ccccc4)c2C3c2ccccc2)cc1 (stereo not drawn)
A549 NSCLC
  TGI: > 100 µM
K-562 leukemia
  TGI: > 100 µM
NCI-H460 lung
  TGI: > 100 µM
SF-268 CNS
  TGI: > 100 µM
SK-MEL-28 melanoma
  TGI: > 100 µM
U251 CNS
  TGI: > 100 µM

## COc1ccc(/C=C/C(=O)C(=O)/C=C/c2ccc(OC)c(OC)c2)cc1OC
A549 NSCLC
  GI50: > 100 µM
  TGI: > 100 µM
HS 578T breast
  GI50: 2.71 µM
  TGI: > 100 µM
K-562 leukemia
  GI50: 1.07 µM
  TGI: > 100 µM
MDA-MB-231 breast
  GI50: 2.25 µM
  TGI: 6 µM
MDA-MB-435
  GI50: 1.16 µM
  TGI: 2.98 µM
NCI-H460 lung
  GI50: 3.06 µM
  TGI: 11.2 µM
PC-3 prostate
  GI50: 3.3 µM
  TGI: > 100 µM
SF-268 CNS
  GI50: 2.53 µM
  TGI: 8.58 µM
U251 CNS
  GI50: 1.53 µM
  TGI: 3.6 µM

## Cc1cc(C)c([O-])c(-[n+]2c(-c3ccccc3)cc(-c3ccccc3)cc2-c2ccccc2)c1
A549 NSCLC
  TGI: 28 µM
K-562 leukemia
  TGI: > 100 µM
NCI-H460 lung
  TGI: 15.8 µM
SF-268 CNS
  TGI: 21.5 µM
SK-MEL-28 melanoma
  TGI: 14.2 µM
U251 CNS
  TGI: 14.9 µM

## CN1CCN(CCCCCOc2cc(O)c3c(=O)cc(-c4ccccc4)oc3c2)CC1
A549 NSCLC
  GI50: 8.18 µM
  TGI: 26.3 µM
HS 578T breast
  GI50: 18.1 µM
  TGI: 51.9 µM
K-562 leukemia
  GI50: 1.8 µM
  TGI: 3.68 µM
MDA-MB-231 breast
  GI50: 1.12 µM
  TGI: 4.53 µM
MDA-MB-435
  GI50: 2.32 µM
  TGI: 5.33 µM
NCI-H460 lung
  GI50: 3.27 µM
  TGI: 11.3 µM
SF-268 CNS
  GI50: 11.7 µM
  TGI: > 100 µM
SK-MEL-28 melanoma
  GI50: 2.22 µM
  TGI: 4.25 µM
U251 CNS
  GI50: 1.98 µM
  TGI: 4.86 µM

## CCCCNC(=O)CC1=C(C)/C(=C/c2[nH]c(-c3ccc[nH]3)cc2OC)N=C1C
A549 NSCLC
  GI50: 3.6 µM
  TGI: 11.2 µM
HS 578T breast
  GI50: 2.66 µM
  TGI: 9.11 µM
MDA-MB-231 breast
  GI50: 1.48 µM
  TGI: 8.04 µM
MDA-MB-435
  GI50: 2.87 µM
  TGI: 9.71 µM
NCI-H460 lung
  GI50: 2.71 µM
  TGI: 11.7 µM
PC-3 prostate
  GI50: 2.36 µM
  TGI: 14.5 µM
SF-268 CNS
  GI50: 2.66 µM
  TGI: 15 µM
U251 CNS
  GI50: 2.86 µM
  TGI: 12.1 µM

## CN(C)C/C=C/C(=O)Nc1ccc(C(=O)Nc2cccc(Nc3ncc(Cl)c(-c4c[nH]c5ccccc45)n3)c2)cc1
A549 NSCLC
  GI50: 0.0963 µM
  TGI: > 100 µM
HS 578T breast
  GI50: 0.0363 µM
  TGI: 0.195 µM
K-562 leukemia
  GI50: < 0.0148 µM
  TGI: > 100 µM
MDA-MB-231 breast
  GI50: 0.0332 µM
  TGI: 0.33 µM
MDA-MB-435
  GI50: 0.0352 µM
  TGI: 0.274 µM
NCI-H460 lung
  GI50: 0.265 µM
  TGI: 0.904 µM
PC-3 prostate
  GI50: 0.0315 µM
  TGI: 0.191 µM
SK-MEL-28 melanoma
  GI50: 0.0215 µM
  TGI: 0.532 µM
U251 CNS
  GI50: 0.0238 µM
  TGI: > 38.2 µM

## CCN1CCCCCCCCCC(=N/O)/C(=N\O)C1
A549 NSCLC
  TGI: > 100 µM
K-562 leukemia
  TGI: > 100 µM
MDA-MB-231 breast
  TGI: > 100 µM
MDA-MB-435
  TGI: > 100 µM
NCI-H460 lung
  TGI: > 100 µM
PC-3 prostate
  TGI: > 100 µM
SF-268 CNS
  TGI: > 100 µM
SK-MEL-28 melanoma
  TGI: > 100 µM
U251 CNS
  TGI: > 100 µM
